Data on five compounds can be found in patent US20080214445A1, “Method of Treating a Solid Tumor Disease Comprising Administering a Combination Comprising Imatinib and an Inhibitor of an Efflux Pump Active at the Blood Brain Barrier or Demethyl Imatinib” (priority 2005, published 2008).

The test system of one series is Rat C6 glioma cells. Kind of series: Accumulation of CGP74588 into rat C6 glioma cells. The class given is cell-based. To be noted: for average fold increase of CGP74588 accumulation: 15 min pre-incubation, 1 min incubation with CGP74588, rat C6 cells. The procedure: Rat C6 glioma cells are used as a model for glioma in in vitro or in vivo studies, to investigate the effect of this combination on cell proliferation.
Rat C6 glioma cells are maintained in high glucose Dulbecco's modified medium supplemented with 10% fetal calf serum and […] L-Glutamine in a humidified atmosphere of 95% air-5% CO2. All accumulation assays are conducted on cultures at confluence. For this purpose, the cells are seeded on 24-well plates at a density of 100×10^3 cells/cm^2 and left to proliferate in culture medium for 48 h.
For competition assays, the cultures are pre-incubated with various concentrations of the different competitors for 15 min. […] The cellular accumulation of 1.5 μM CGP74588 is also studied in C6 cells that have been pre-incubated with hydroxyurea (1, 10, 100 or 1000 μM) for 48 h.

The next series deals with T1, BCRP (Homo sapiens, UniProt Q9UNQ0).
T1 sequence (Q9UNQ0 1-655): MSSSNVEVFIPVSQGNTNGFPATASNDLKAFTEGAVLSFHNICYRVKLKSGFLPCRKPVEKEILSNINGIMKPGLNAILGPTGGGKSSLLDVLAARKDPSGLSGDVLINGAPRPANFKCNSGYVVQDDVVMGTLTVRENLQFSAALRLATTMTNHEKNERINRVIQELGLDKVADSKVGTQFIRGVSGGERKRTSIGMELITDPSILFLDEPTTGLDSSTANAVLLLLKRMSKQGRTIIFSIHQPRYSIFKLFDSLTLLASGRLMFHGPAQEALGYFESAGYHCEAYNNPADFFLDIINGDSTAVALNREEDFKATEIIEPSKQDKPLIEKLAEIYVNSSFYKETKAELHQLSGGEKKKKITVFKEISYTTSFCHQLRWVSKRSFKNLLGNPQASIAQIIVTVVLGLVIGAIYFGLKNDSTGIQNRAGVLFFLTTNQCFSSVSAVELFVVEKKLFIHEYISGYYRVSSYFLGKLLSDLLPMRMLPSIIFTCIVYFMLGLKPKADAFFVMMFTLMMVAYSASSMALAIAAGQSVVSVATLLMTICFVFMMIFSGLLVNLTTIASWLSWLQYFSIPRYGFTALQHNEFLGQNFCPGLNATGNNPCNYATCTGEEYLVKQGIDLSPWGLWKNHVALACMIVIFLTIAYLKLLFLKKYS
The series is described as follows: BCRP efflux pump inhibition / transport.

For series [1] the following is noted: FVB wild-type mice; co-perfusion of valspodar 10 μM with imatinib 0.5 μM.
A short description of series [2]: Blood and brain pharmacokinetics in Hanover Wistar rats after intravenous [14C]STI571 with or without PSC833.
Description: (§1) Blood, plasma, brain are collected for each animal.
(§2) All samples are analyzed for total radioactivity by liquid scintillation counting (LSC). In brief, 50 μL blood samples are successively mixed and incubated with 0.5 mL Soluene 350-isopropanol 1:1 (v/v), 0.2 mL H2O2 30% (overnight), 0.5 mL HCl 2N (20 min) and 5 mL IrgaSafe (Packard) (overnight). 50 μL plasma samples are successively mixed and incubated with 0.5 mL Soluene 350-isopropanol 1:1 (v/v) (overnight), 0.5 mL HCl 2N (20 min) and 5 mL IrgaSafe (overnight). 250 μL brain homogenate samples are treated by 2 mL Soluene 350 (overnight), 0.5 mL HCl 2N (20 min) and 17.5 mL Irgasafe (overnight). All samples are counted in Tricarb liquid scintillation analyzers (Packard).
(§3) All blood samples are spiked with 100 μL of water for hemolysis whereas all other samples are directly analyzed. […] The organic layer is separated and evaporated in a vacuum centrifuge. The residues are dissolved in 250 μL of acetonitrile-water (30:70 v/v) followed by 75 μl of n-hexane. […] The effluent is monitored by an UV-detector set at 270 nm.
The next series in a line: in vivo. To be noted: Hanover Wistar, rat, iv, 12.5 mg/kg.
For series [3] the following is noted: Hanover Wistar, rat, in vivo, iv.
Description: as §1, §2, §3
The subject of series [4] is P-glycoprotein and Breast-Cancer Resistance Protein (suggested by experiments in mdr1a1b(-/-) mice). The series is described as follows: in vivo. To be noted: FVB, mouse.
[5] abbreviates: Concentration of STI571 in brain, Mean.
The mark [6] stands for this setting: Concentration of STI571 in brain, individual data.

Regarding `COc1cc2c(cc1OC)CN(CCc1ccc(NC(=O)c3cccc4c(=O)c5cccc(OC)c5[nH]c34)cc1)CC2` [elacridar], the entries for the “average fold increase of CGP74588 accumulation” value (from here on “average fold increase”) in the series with Rat C6 glioma cells (inhibitor 1 μM) and with Rat C6 glioma cells (inhibitor 10 μM) were 1.7 fold and 2.3 fold, respectively.
As for `Cl.Cl.Cl.O[C@@H](COc1cccc2ncccc12)CN1CCN(C2c3ccccc3[C@@H]3[C@H](c4ccccc42)C3(F)F)CC1` (stereo partly drawn) [zosuquidar, 1-[4-(1,1-difluor-1,1aR,6S,10bS-tetrahydrodibenzo[a,e]-cyclo-propa[c]cyclohepten-6-yl)piperazin-1-yl]-3-(chinolin-5-yloxy)-2(R)-propanol-trihydrochloride], the “average fold increase” value in the series with Rat C6 glioma cells (inhibitor 1 μM) stood at 1.7 fold; in the series with Rat C6 glioma cells (inhibitor 10 μM), 2.3 fold.
As to `Cc1ccc(NC(=O)c2ccc(CN3CCNCC3)cc2)cc1Nc1nccc(-c2cccnc2)n1` [CGP74588, N-{5-[4-(piperazino-methyl)-benzoylamido]-2-methylphenyl}-4-(3-pyridyl)-2-pyrimidine-amine], at BCRP, the BCRP inhibition result is given as “not” and the “transport by efflux pump” value is given as “dominated by BCRP”. The “accumulation in rat C6 cells” value in the series with Rat C6 glioma cells (CGP74588 0.5-50 μM) is “concentration dependant”.
`C/C=C/C[C@@H](C)C(=O)[C@H]1C(=O)N[C@@H](C(C)C)C(=O)N(C)CC(=O)N(C)[C@@H](CC(C)C)C(=O)N[C@@H](C(C)C)C(=O)N(C)[C@@H](CC(C)C)C(=O)N[C@@H](C)C(=O)N[C@H](C)C(=O)N(C)[C@@H](CC(C)C)C(=O)N(C)[C@@H](CC(C)C)C(=O)N(C)[C@@H](C(C)C)C(=O)N1C` [valspodar, [3′-desoxy-3′-oxo-MeBmt]^1-[Val]^2-Ciclosporin A]: the “average fold increase” value came to 1.7 fold in the series on Rat C6 glioma cells (inhibitor 1 μM) and 2.3 fold in the series on Rat C6 glioma cells (inhibitor 10 μM). Further, the “effect on distribution of imatinib into the brain” value in series [1] was “markedly enhance”. Further, in series [2] (12.5 mg/kg STI571 and 10 mg/kg PSC833 i.v.), the “effect on the elimination slope of unchanged STI571 from brain to blood” value is “does not significantly modify”. The “impact on the plasma pharmacokinetics of imatinib” value in series [2] (valspodar 10 mg/kg i.v. with imatinib 12.5 mg/kg i.v.) is on record as “no significant impact”.
With `Cc1ccc(NC(=O)c2ccc(CN3CCN(C)CC3)cc2)cc1Nc1nccc(-c2cccnc2)n1` [STI571, N-{5-[4-(4-methyl-piperazino-methyl)-benzoylamido]-2-methylphenyl}-4-(3-pyridyl)-2-pyrimidine-amine], in “in vivo”, the highest concentration (Cmax) worked out at 893 ng/g and the Tmax was found to be 15 min. Further, in the series “in vivo” (setting [5]), the concentration at 0.25 h came to 893 ng/g, the concentration at 0.5 h was determined as 533 ng/g, the concentration at 1 h turned out to be 550 ng/g and the concentration at 2 h came out at 333 ng/g. In the series “in vivo” (setting [5]), the concentration at 4 h came out at 115 ng/g and the concentration at 8 h was determined as 38 ng/g. In the series “in vivo” (setting [6]), this compound yielded a concentration at 1 h of 540 ng/g, a concentration at 2 h of 402 ng/g, a concentration at 4 h of 102 ng/g and a concentration at 8 h of 52 ng/g. Besides, the “time post dose at which brain Cmax is reached” value in series [3] stood at 15 min. Further, the Km in series [4] was 5 to 10 µM.

Usually Cmax stands for the maximum level reached in the sampled fluid or tissue. As usually defined, the Tmax is the time from dosing to the highest level. As a reminder, the Km is the concentration of substrate that gives half-maximal velocity.
